Measured values: ChEMBL document CHEMBL1133808, “The discovery of sulfonylated dipeptides as potent VLA-4 antagonists” (Bioorg Med Chem Lett, 2001)
Starred links: 1 amine or outer side, 2 acyl side, 3 side chain; linkers in the order of their positions; H or OH if unused. Non-standard residues stand in square brackets, D forms with d. Residues, ends and D or L forms follow the SMILES beside them. *: point of attachment. X1 = O=C(Cc1ccc(N[*:1])cc1)[*:2]; NH(2-Me-phenyl) = Cc1ccccc1N*; CO = O=C([*:1])[*:2]

Columns and labels:
[1] = molecular target: T1, Integrin alpha-4/beta-7 (Homo sapiens, UniProt P13612+P26010); assay: Inhibition of [125I]MAdCAM-Ig binding to alpha4-beta7 integrin of human RPMI-8866 cells; format: cell-based
T1 sequence (P13612 whole entry): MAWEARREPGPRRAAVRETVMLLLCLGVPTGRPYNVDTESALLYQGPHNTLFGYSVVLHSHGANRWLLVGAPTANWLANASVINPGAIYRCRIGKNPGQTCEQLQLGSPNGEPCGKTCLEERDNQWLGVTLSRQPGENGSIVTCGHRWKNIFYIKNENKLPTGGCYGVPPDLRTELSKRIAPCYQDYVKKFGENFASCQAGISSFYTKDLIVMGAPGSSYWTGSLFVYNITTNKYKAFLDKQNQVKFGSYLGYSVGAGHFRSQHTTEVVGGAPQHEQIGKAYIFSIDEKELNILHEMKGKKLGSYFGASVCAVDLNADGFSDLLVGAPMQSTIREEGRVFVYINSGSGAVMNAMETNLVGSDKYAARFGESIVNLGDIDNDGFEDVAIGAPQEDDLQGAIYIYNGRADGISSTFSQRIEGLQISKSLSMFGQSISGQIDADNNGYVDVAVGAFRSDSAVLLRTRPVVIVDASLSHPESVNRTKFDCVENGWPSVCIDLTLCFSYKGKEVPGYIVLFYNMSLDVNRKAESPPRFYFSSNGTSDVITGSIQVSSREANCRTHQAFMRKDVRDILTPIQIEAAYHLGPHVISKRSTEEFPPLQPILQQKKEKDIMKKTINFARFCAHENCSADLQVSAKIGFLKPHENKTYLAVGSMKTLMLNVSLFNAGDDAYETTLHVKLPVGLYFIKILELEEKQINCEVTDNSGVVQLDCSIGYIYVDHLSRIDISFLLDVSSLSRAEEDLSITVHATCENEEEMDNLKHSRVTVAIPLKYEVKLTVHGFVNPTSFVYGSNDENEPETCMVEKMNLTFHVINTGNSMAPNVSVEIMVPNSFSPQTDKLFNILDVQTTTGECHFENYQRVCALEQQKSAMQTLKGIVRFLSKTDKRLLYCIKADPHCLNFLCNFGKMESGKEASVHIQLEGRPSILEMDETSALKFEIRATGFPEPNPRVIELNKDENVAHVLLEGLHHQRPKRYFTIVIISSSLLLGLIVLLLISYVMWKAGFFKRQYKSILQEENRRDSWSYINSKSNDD
T1 sequence (P26010 whole entry): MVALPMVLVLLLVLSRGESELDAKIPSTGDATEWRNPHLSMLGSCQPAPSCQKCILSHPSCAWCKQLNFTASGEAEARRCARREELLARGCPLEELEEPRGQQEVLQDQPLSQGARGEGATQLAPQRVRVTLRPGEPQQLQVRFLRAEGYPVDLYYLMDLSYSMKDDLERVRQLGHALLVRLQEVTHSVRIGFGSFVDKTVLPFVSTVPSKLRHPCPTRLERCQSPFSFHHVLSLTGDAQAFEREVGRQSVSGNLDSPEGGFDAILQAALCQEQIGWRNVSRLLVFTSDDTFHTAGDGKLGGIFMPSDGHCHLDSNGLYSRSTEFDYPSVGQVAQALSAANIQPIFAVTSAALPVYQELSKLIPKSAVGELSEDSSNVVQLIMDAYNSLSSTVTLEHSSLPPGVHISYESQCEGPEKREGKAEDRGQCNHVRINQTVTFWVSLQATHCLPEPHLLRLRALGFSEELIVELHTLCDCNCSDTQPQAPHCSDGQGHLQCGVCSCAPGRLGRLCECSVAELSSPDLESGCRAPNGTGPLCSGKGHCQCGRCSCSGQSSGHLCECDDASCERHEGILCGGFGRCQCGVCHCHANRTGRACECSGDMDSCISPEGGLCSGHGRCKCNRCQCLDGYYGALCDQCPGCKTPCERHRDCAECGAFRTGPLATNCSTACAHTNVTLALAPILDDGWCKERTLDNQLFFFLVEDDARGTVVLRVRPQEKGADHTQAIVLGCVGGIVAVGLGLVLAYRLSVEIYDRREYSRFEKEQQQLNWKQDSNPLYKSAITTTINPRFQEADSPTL

[2] = molecular target: Integrin alpha-4/beta-1 (Homo sapiens, UniProt P05556+P13612); assay: Antagonistic activity against VLA-4 integrin of human jurkat cells using [125I]VCAM-Ig as radioligand; format: functional, cell-based
Integrin alpha-4/beta-1, sequence (P05556 whole entry, one chain of several): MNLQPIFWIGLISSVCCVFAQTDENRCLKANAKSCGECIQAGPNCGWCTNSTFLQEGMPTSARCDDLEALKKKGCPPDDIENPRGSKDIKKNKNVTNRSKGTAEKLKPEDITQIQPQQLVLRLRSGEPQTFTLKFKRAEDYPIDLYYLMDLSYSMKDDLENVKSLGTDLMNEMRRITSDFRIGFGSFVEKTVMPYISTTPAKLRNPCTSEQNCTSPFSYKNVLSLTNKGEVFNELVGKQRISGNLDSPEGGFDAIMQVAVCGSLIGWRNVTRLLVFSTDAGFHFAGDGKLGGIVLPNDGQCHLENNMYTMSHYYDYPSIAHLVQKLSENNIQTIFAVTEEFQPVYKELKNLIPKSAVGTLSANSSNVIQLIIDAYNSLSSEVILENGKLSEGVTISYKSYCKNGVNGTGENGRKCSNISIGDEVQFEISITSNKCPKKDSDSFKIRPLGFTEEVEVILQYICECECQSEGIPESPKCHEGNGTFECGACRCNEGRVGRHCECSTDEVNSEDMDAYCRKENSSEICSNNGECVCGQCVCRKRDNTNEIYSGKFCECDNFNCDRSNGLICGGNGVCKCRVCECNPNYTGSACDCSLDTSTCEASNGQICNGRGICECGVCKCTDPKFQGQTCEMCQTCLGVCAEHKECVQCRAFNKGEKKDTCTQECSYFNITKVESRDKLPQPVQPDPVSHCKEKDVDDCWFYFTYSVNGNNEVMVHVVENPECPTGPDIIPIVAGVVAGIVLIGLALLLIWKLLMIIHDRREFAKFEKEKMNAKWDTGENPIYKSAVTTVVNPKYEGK

[3] = Plasma half-life in Sprague-Dawley rats; format: ADME, organism-based; conditions: rat
[4] = Plasma clearance in Sprague-Dawley rats; format: ADME, organism-based; conditions: rat, read-out: Clp
[5] = molecular target: T1, Integrin alpha-4/beta-7; assay: Inhibition of [125I]VCAM-Ig binding to alpha4-beta7 integrin of human RPMI-8866 cells; format: cell-based

Row | IC50 [2] | IC50 [5] | Compound | other results
1 | 4.5 nM | – | CC(C)C(=O)Oc1cccc(OC(=O)C(C)C)c1-c1ccc(C[C@H](NC(=O)[C@]2(C)CCCN2S(=O)(=O)c2cc(Cl)cc(Cl)c2)C(=O)O)cc1 | IC50 [1]: 3550 nM
2 | 0.07 nM | – | COc1cccc(OC)c1-c1ccc(C[C@H](NC(=O)[C@]2(C)CCN2S(=O)(=O)c2cc(Cl)cc(Cl)c2)C(=O)O)cc1 | half-life [3]: 1.5 h; IC50 [1]: 14.2 nM; clearance [4]: > 100 mL/min/kg
3 | 0.28 nM | – | COc1cccc(C#N)c1-c1ccc(C[C@H](NC(=O)[C@]2(C)CCCN2S(=O)(=O)c2cc(Cl)cc(Cl)c2)C(=O)O)cc1 | IC50 [1]: 77 nM
4 | 1.43 nM | – | Cc1ccccc1-c1ccc(C[C@H](NC(=O)[C@@H]2CCCN2S(=O)(=O)c2cc(Cl)cc(Cl)c2)C(=O)O)cc1 | –
5 | 0.38 nM | – | O=Cc1ccc(-c2ccc(C[C@H](NC(=O)[C@@H]3CCCN3S(=O)(=O)c3cc(Cl)cc(Cl)c3)C(=O)O)cc2)cc1 | –
6 | 0.24 nM | 413 nM | C[C@@]1(C(=O)N[C@@H](Cc2ccc(-c3nccs3)cc2)C(=O)O)CCCN1S(=O)(=O)c1cc(Cl)cc(Cl)c1 | –
7 | 1.53 nM | – | Cc1ccc(-c2ccc(C[C@H](NC(=O)[C@@H]3CCCN3S(=O)(=O)c3cc(Cl)cc(Cl)c3)C(=O)O)cc2)cc1 | –
8 | 0.36 nM | – | CSc1ccccc1-c1ccc(C[C@H](NC(=O)[C@@H]2CCCN2S(=O)(=O)c2cc(Cl)cc(Cl)c2)C(=O)O)cc1 | –
9 | 0.52 nM | 242 nM | COc1ccccc1-c1ccc(C[C@H](NC(=O)[C@]2(C)CCCN2S(=O)(=O)c2cc(Cl)cc(Cl)c2)C(=O)O)cc1 | clearance [4]: 20 mL/min/kg
10 | 0.14 nM | – | C[C@@]1(C(=O)N[C@@H](Cc2ccc(-c3ncccc3C#N)cc2)C(=O)O)CCCN1S(=O)(=O)c1cc(Cl)cc(Cl)c1 | –
11 | 0.1 nM | – | CNC(=O)c1ccccc1-c1ccc(C[C@H](NC(=O)[C@@H]2CCCN2S(=O)(=O)c2cc(Cl)cc(Cl)c2)C(=O)O)cc1 | –
12 | 0.1 nM | – | CS(=O)(=O)c1ccccc1-c1ccc(C[C@H](NC(=O)[C@@H]2CCCN2S(=O)(=O)c2cc(Cl)cc(Cl)c2)C(=O)O)cc1 | –
13 | 0.13 nM | – | CN(C)C(=O)c1ccccc1-c1ccc(C[C@H](NC(=O)[C@@H]2CCCN2S(=O)(=O)c2cc(Cl)cc(Cl)c2)C(=O)O)cc1 | –
14 | 0.54 nM | – | O=C(O)c1cccc(-c2ccc(C[C@H](NC(=O)[C@@H]3CCCN3S(=O)(=O)c3cc(Cl)cc(Cl)c3)C(=O)O)cc2)c1 | –
15 | 0.63 nM | – | O=C(O)[C@H](Cc1ccc(-c2ccccc2)cc1)NC(=O)[C@@H]1CCCN1S(=O)(=O)c1cc(Cl)cc(Cl)c1 | –
16 | – | – | COc1cccc(OC)c1-c1ccc(C[C@H](NC(=O)[C@@H]2CCN2S(=O)(=O)c2cc(Cl)cc(Cl)c2)C(=O)O)cc1 | IC50 [1]: 10.6 nM; clearance [4]: > 100 mL/min/kg
17 | 0.16 nM | 13.2 nM | C[C@@]1(C(=O)N[C@@H](Cc2ccc(-c3ccccc3S(C)(=O)=O)cc2)C(=O)O)CCCN1S(=O)(=O)c1cc(Cl)cc(Cl)c1 | –
18 | 0.22 nM | – | O=Cc1ccccc1-c1ccc(C[C@H](NC(=O)[C@@H]2CCCN2S(=O)(=O)c2cc(Cl)cc(Cl)c2)C(=O)O)cc1 | –
19 | 0.22 nM | 82.7 nM | CN(C)C(=O)c1ccccc1-c1ccc(C[C@H](NC(=O)[C@]2(C)CCCN2S(=O)(=O)c2cc(Cl)cc(Cl)c2)C(=O)O)cc1 | –
20 | 0.14 nM | 24.3 nM | C[C@@]1(C(=O)N[C@@H](Cc2ccc(-c3ccccc3C(N)=O)cc2)C(=O)O)CCCN1S(=O)(=O)c1cc(Cl)cc(Cl)c1 | half-life [3]: 1.1 h
21 | 0.95 nM | – | O=C(O)c1ccccc1-c1ccc(C[C@H](NC(=O)[C@@H]2CCCN2S(=O)(=O)c2cc(Cl)cc(Cl)c2)C(=O)O)cc1 | –
22 | 0.39 nM | – | N#Cc1cccc(-c2ccc(C[C@H](NC(=O)[C@@H]3CCCN3S(=O)(=O)c3cc(Cl)cc(Cl)c3)C(=O)O)cc2)c1 | –

Row | IC50 [2] | IC50 [5] | Compound | other results
23 | 192 nM | 2260 nM | C[C@@]1(C(=O)N[C@@H](Cc2ccc(-c3ccccc3Cl)cc2)C(=O)O)CCCN1S(=O)(=O)c1cc(Cl)cc(Cl)c1 | –
24 | 1.33 nM | 5720 nM | C[C@@]1(C(=O)N[C@@H](Cc2ccc(-c3cccc4cc[nH]c34)cc2)C(=O)O)CCCN1S(=O)(=O)c1cc(Cl)cc(Cl)c1 | –
25 | 0.5 nM | – | C[C@@]1(C(=O)N[C@@H](Cc2ccc(-c3c(O)cccc3O)cc2)C(=O)O)CCCN1S(=O)(=O)c1cc(Cl)cc(Cl)c1 | IC50 [1]: 670 nM
26 | 7 nM | – | COc1ccc(S(=O)(=O)N2Cc3ccccc3C[C@H]2C(=O)N[C@@H](Cc2ccc3ccccc3c2)C(=O)O)cc1OC | –
27 | 0.15 nM | – | COC(=O)c1ccccc1-c1ccc(C[C@H](NC(=O)[C@@H]2CCCN2S(=O)(=O)c2cc(Cl)cc(Cl)c2)C(=O)O)cc1 | –
28 | 0.65 nM | 78.2 nM | CSc1ccccc1-c1ccc(C[C@H](NC(=O)[C@]2(C)CCCN2S(=O)(=O)c2cc(Cl)cc(Cl)c2)C(=O)O)cc1 | –
29 | 1.01 nM | 1240 nM | C[C@@]1(C(=O)N[C@@H](Cc2ccc(-c3cc(C#N)ccc3F)cc2)C(=O)O)CCCN1S(=O)(=O)c1cc(Cl)cc(Cl)c1 | –
30 | 10 nM | – | CCCC[C@H](NC(=O)[C@@H]1Cc2ccccc2CN1S(=O)(=O)c1cc(Cl)cc(Cl)c1)C(=O)O | –
31 | 0.9 nM | – | O=C(O)[C@H](Cc1ccc(-c2ccc(F)cc2)cc1)NC(=O)[C@@H]1CCCN1S(=O)(=O)c1cc(Cl)cc(Cl)c1 | –
32 | 0.09 nM | – | NC(=O)c1ccccc1-c1ccc(C[C@H](NC(=O)[C@@H]2CCCN2S(=O)(=O)c2cc(Cl)cc(Cl)c2)C(=O)O)cc1 | –
33 | 360 nM | – | COc1ccc(S(=O)(=O)N2Cc3ccccc3C[C@H]2C(=O)N[C@@H](CCCNC(=N)N)C(=O)O)cc1OC | –
34 | 0.4 nM | – | COC(=O)c1cccc(-c2ccc(C[C@H](NC(=O)[C@@H]3CCCN3S(=O)(=O)c3cc(Cl)cc(Cl)c3)C(=O)O)cc2)c1 | –
35 | 0.09 nM | – | COc1cccc(OC)c1-c1ccc(C[C@H](NC(=O)[C@@H]2CCCN2S(=O)(=O)c2cc(Cl)cc(Cl)c2)C(=O)O)cc1 | –
36 | 0.23 nM | – | O=Cc1cccc(-c2ccc(C[C@H](NC(=O)[C@@H]3CCCN3S(=O)(=O)c3cc(Cl)cc(Cl)c3)C(=O)O)cc2)c1 | –
37 | 1.02 nM | – | O=C(O)[C@H](Cc1ccc(-c2ccccc2F)cc1)NC(=O)[C@@H]1CCCN1S(=O)(=O)c1cc(Cl)cc(Cl)c1 | –
38 | 1.12 nM | 1140 nM | C[C@@]1(C(=O)N[C@@H](Cc2ccc(-c3cccc(C#N)c3)cc2)C(=O)O)CCCN1S(=O)(=O)c1cc(Cl)cc(Cl)c1 | –
39 | 0.52 nM | – | C[C@@]1(C(=O)N[C@@H](Cc2ccc(-c3nc[nH]n3)cc2)C(=O)O)CCCN1S(=O)(=O)c1cc(Cl)cc(Cl)c1 | IC50 [1]: 949 nM
40 | 2.4 nM | > 4000 nM | C[C@@]1(C(=O)N[C@@H](Cc2ccc(-c3ccccc3F)cc2)C(=O)O)CCCN1S(=O)(=O)c1cc(Cl)cc(Cl)c1 | –
41 | 45 nM | – | CCCC[C@H](NC(=O)[C@@H]1CCCN1S(=O)(=O)c1ccc(OC)c(OC)c1)C(=O)O | –
42 | 0.35 nM | 311 nM | C[C@@]1(C(=O)N[C@@H](Cc2ccc(-c3cccnc3)cc2)C(=O)O)CCCN1S(=O)(=O)c1cc(Cl)cc(Cl)c1 | –
43 | – | 433 nM | Cc1ccccc1NC(=O)Nc1ccc(CC(=O)N[C@@H](CC(C)C)C(=O)N[C@@H](CC(=O)O)C(=O)N[C@H](C(=O)N2CCC[C@H]2C(=O)O)C(C)C)cc1 ({NH(2-Me-phenyl)-CO}-[X1]LDVP-OH) | IC50 [1]: 862 nM
